From patent US12384792B2, “Solid forms of isoquinolinones, and process of making, composition comprising, and methods of using the same” (Twelve Therapeutics, Inc., priority 2015, dated 2025) come the findings set out here.

Each structure is given as a SMILES string. ≈ marks a conversion by molar mass, not a printed value.

Common to all, as to assay type: physicochemical
The nature of series [1]: Gravimetric vapour sorption (GVS). The note with it: 0-90% RH. As to the method: Gravimetric Vapour Sorption (GVS)
Sorption isotherms were obtained using a SMS DVS Intrinsic moisture sorption analyser, controlled by DVS Intrinsic Control software v1.0.1.2 (or v 1.0.1.3). The sample temperature was maintained at 25° C. by the instrument controls. The humidity was controlled by mixing streams of dry and wet nitrogen, with a total flow rate of 200 ml/min The relative humidity was measured by a calibrated Rotronic probe (dynamic range of 1.0-100% RH), located near the sample. The weight change, (mass relaxation) of the sample as a function of % RH was constantly monitored by the microbalance (accuracy ±0.005 mg). Typically 5-20 mg of sample was placed in a tared mesh stainless steel basket under ambient conditions. The sample was loaded and unloaded at 40% RH and 25° C. (typical room conditions). A moisture sorption isotherm was performed as outlined below (2 scans giving 1 complete cycle). The standard isotherm was performed at 25° C. at 10% RH intervals over a 0-90% RH range. Data analysis was carried out using Microsoft Excel using DVS Analysis Suite v6.2 (or 6.1 or 6.0).

A short description of series [2]: Static stability on storage at controlled temperature/RH (XRPD, purity). The text has this:
See tables below for the summarized results.

Series [3] is described as follows: Static storage stability of solid forms (40° C./75% RH, 25° C./96% RH), form checked by XRPD. To be noted: dried screening sample, solid form after 7 and 36 days at 40° C./75% RH.
Series [4] is described as follows: Solubility screen: solubility assessment of amorphous Compound 1 in solvents. To be noted: thermodynamic from solid, room temperature. As for the experimental part: Amorphous Compound 1 (30 mg) was weighed out and 100 μl (˜3 vols) solvent was added at room temperature. Many samples initially dissolved but precipitated back out again after stirring for a few minutes. It was assumed that these samples had crystallized, so additional portions of solvent were added to determine the solubility of the crystalline material. See Table 1 for solubility assessment of amorphous Compound 1. […]

Setting [5] is: after 63 days, no change in form but loss of crystallinity.

With `C[C@H](NC(=O)c1c(N)nn2cccnc12)c1cc2cccc(C#Cc3cnn(C)c3)c2c(=O)n1-c1ccccc1` [Form 1 reference], the “Hygroscopicity by GVS” value in series [1] is “non-”. Moreover, the “GVS total weight change 0-90% RH” value in series [1] (25° C.) was about 0.5 wt %. Besides, in series [2] (after 7 days), the “Static stability at 25° C./96% RH, XRPD” value is on record as “no change after 7 days,” and the “Static stability at 40° C./75% RH, XRPD” value is “no change after 7 days,”. Further, in series [2] (setting [5]), the “Static stability at 25° C./96% RH, form by XRPD” value is listed as “after 63 days no change” and the “Static stability at 40° C./75% RH, form by XRPD” value is given as “after 63 days no change”.

With `C[C@H](NC(=O)c1c(N)nn2cccnc12)c1cc2cccc(C#Cc3cnn(C)c3)c2c(=O)n1-c1ccccc1` [Form 7, (S)-2-amino-N-(1-(8-((1-methyl-1H-pyrazol-4-yl)ethynyl)-1-oxo-2-phenyl-1,2-dihydroisoquinolin-3-yl)ethyl)pyrazolo[1,5-a]pyrimidine-3-carboxamide], the “Static Stability 40° C./75% RH” value in series [3] was “remains Form 7”.

Regarding `C[C@H](NC(=O)c1c(N)nn2cccnc12)c1cc2cccc(C#Cc3cnn(C)c3)c2c(=O)n1-c1ccccc1` [Form 3, (S)-2-amino-N-(1-(8-((1-methyl-1H-pyrazol-4-yl)ethynyl)-1-oxo-2-phenyl-1,2-dihydroisoquinolin-3-yl)ethyl)pyrazolo[1,5-a]pyrimidine-3-carboxamide], the “Static Stability 40° C./75% RH” value in series [3] is “remains Form 3”.

As for `C[C@H](NC(=O)c1c(N)nn2cccnc12)c1cc2cccc(C#Cc3cnn(C)c3)c2c(=O)n1-c1ccccc1` [amorphous Compound 1, (S)-2-amino-N-(1-(8-((1-methyl-1H-pyrazol-4-yl)ethynyl)-1-oxo-2-phenyl-1,2-dihydroisoquinolin-3-yl)ethyl)pyrazolo[1,5-a]pyrimidine-3-carboxamide], the solubility in series [4] (organic solvent or mixture, in 1,2-Dimethoxyethane) is under 17 mg/mL; in series [4] (organic solvent or mixture, in 1,4-Dioxane), under 17 mg/mL; in series [4] (organic solvent or mixture, in 1-Propanol), under 17 mg/mL; in series [4] (organic solvent or mixture, in 2-Methoxyethanol), at least 333 mg/mL; in series [4] (organic solvent or mixture, in 2-Methyl-1-propanol), under 17 mg/mL; in series [4] (organic solvent or mixture, in 2-Propanol), under 17 mg/mL. Further, the solubility in series [4] (organic solvent or mixture, in Acetone) is under 17 mg/mL; in series [4] (organic solvent or mixture, in Acetonitrile) it was under 17 mg/mL; in series [4] (organic solvent or mixture, in Chloroform), under 17 mg/mL; in series [4] (organic solvent or mixture, in Cyclohexane) it was under 17 mg/mL; in series [4] (organic solvent or mixture, in Dichloromethane), 17 to 20 mg/mL (≈ 32.2 to 37.8 mM); in series [4] (organic solvent or mixture, in Dimethyl sulfoxide), at least 333 mg/mL. For the same molecule, the solubility in series [4] (organic solvent or mixture, in Ethanol) is under 17 mg/mL; in series [4] (organic solvent or mixture, in Ethyl acetate) it was under 17 mg/mL; in series [4] (organic solvent or mixture, in Ethyleneglycol), under 17 mg/mL; in series [4] (organic solvent or mixture, in IPA/Water (95/5 v/v)), under 17 mg/mL; in series [4] (organic solvent or mixture, in Isopropyl acetate), under 17 mg/mL; in series [4] (organic solvent or mixture, in MEK) it was under 17 mg/mL. Besides, the solubility was under 17 mg/mL in series [4] (organic solvent or mixture, in MIBK); under 17 mg/mL in series [4] (organic solvent or mixture, in Methanol); at least 333 mg/mL in series [4] (organic solvent or mixture, in N,N-Dimethylformamide); 25 to 33 mg/mL (≈ 47.3 to 62.4 mM) in series [4] (organic solvent or mixture, in Nitromethane); under 17 mg/mL in series [4] (organic solvent or mixture, in THF/Water (95/5 v/v)); under 17 mg/mL in series [4] (organic solvent or mixture, in Tetrahydrofuran). Besides, the solubility is under 17 mg/mL in series [4] (organic solvent or mixture, in Toluene); under 17 mg/mL in series [4] (organic solvent or mixture, in n-Heptane); under 17 mg/mL in series [4] (organic solvent or mixture, in tert-Butylmethyl ether); under 17 mg/mL in series [4] (in Water).

Take `C[C@H](NC(=O)c1c(N)nn2cccnc12)c1cc2cccc(C#Cc3cnn(C)c3)c2c(=O)n1-c1ccccc1` [Form 4, (S)-2-amino-N-(1-(8-((1-methyl-1H-pyrazol-4-yl)ethynyl)-1-oxo-2-phenyl-1,2-dihydroisoquinolin-3-yl)ethyl)pyrazolo[1,5-a]pyrimidine-3-carboxamide]: in series [3], the “Static Stability 40° C./75% RH” value is “remains Form 4”.

Usually solubility stands for the concentration that dissolves in the medium under given conditions.
